Drawing on PMC2233901 (The Journal of General Physiology, 2004), this text covers Ki and IC50 for 2 compounds.

Broadly, the Ki is a measure of affinity in units of concentration, obtained from inhibition or displacement. Low readings indicate tighter binding, high ones weaker binding. A word on the IC50: it is the concentration at which inhibition is half-maximal.

Each structure is given as a SMILES string. Changes are numbered by the printed parent chain.

Assay type in all cases: cell-based
Experiment [1] concerns the target T1, mBest2 (mouse bestrophin-2) (Mus musculus, UniProt Q8BGM5, F80R).
T1 sequence (Q8BGM5 1-508 F80R): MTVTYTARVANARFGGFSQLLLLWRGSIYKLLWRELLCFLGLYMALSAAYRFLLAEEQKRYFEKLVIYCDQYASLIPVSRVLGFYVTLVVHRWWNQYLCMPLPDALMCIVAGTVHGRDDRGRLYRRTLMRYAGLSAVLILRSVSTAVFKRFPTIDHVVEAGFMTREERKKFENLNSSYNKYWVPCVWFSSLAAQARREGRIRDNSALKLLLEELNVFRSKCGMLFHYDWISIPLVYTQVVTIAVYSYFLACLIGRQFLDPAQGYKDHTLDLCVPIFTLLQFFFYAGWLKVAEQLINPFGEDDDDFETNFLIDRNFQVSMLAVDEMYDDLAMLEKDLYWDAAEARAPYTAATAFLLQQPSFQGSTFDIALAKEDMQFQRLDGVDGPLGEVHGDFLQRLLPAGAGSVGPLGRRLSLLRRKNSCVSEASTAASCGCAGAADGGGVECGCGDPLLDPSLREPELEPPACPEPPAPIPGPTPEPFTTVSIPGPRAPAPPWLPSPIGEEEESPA
Nature of the experiment: whole-cell patch clamp, inhibition of Cl current in HEK293. A general note: Patch clamp records ionic current or voltage across a cell membrane.

For experiment [2], the target named is T2, mBest2 (mouse bestrophin-2) (Mus musculus, UniProt Q8BGM5, S79T).
T2 sequence (Q8BGM5 1-508 S79T): T1 sequence (Q8BGM5 1-508 F80R) with S79T, R80F
Briefly: whole-cell patch clamp, block of Cl current in HEK293.

Experiment [3] deals with T3, mBest2 (mouse bestrophin-2) (Mus musculus, UniProt Q8BGM5).
T3 sequence (Q8BGM5 1-508): T1 sequence (Q8BGM5 1-508 F80R) with R80F
The description is as above.

As to `O=S(=O)(O)c1cc(N=C=S)ccc1/C=C/c1ccc(N=C=S)cc1S(=O)(=O)O` [DIDS], the Ki in experiment [1] is 16 µM. That is a double-digit micromolar value.

With `N#CS` [SCN], the IC50 was 18.5 ± 2.7 mM in experiment [2] and 9.8 ± 1.1 mM in experiment [3].
